Consider five compounds from patent US20240295545A1, “GLIOMA THERAPY” (Imperial College Innovations Limited, priority 2021, published 2024).

Experiment [1] addresses T1, mitochondrial F1Fo ATP Synthase c-subunit leak channel (Sus scrofa, UniProt A1XQS5).
T1 construct: isolated swine brain submitochondrial vesicles (SMVs), which are enriched for the F1Fo ATP synthase; from tissue; host or cells: pig (swine) brain, submitochondrial vesicles
Put plainly: ACMA assay (H+ leak in submitochondrial vesicles). The following applies: negative control; swine brain SMVs. In kind it is biochemical, pig.
Method: ACMA assay buffer (concentrations used throughout the assay):
ACMA solution: • Stock solution of 1 mg/ml (3.87 mM) ACMA in 100% ethanol • Diluted to working solution (3 μM) in assay buffer • Aliquots of 10 μL to be added to wells
• 1. Sub-mitochondrial vesicles (SMVs) isolated from pig brains were thawed and prepared to 0.17 μg/μL in ACMA assay buffer. • 2. Drug solutions were added to 386-well plates at a final concentration of 10 μM. • 3. Sub-mitochondrial vesicles (SMVs), isolated from pig brains, were thawed and prepared to 0.17 μg/μL in ACMA assay buffer. 30 μL of this solution (containing 5 μg of polypeptide, as measured via the QuickStart Bradford Protein Assay (Bio-Rad, UK)) was added to each well. • 4. Stock solution of 1 mg/ml (3.87 mM) ACMA (9-amino-6-chloro-2-methoxyacridine) were diluted to working solution 3 μM in assay buffer. Aliquots of 10 μL were added to each well (final concentration of 0.75 μM). • 5. The samples were mixed and incubated at room temperature for 20 mins. • 6. The ACMA fluorescence was measured at 1 min intervals using a Tecan Infinite M200 plate reader—excitation 412 nm, emission 480 nm. • 7. […] Fluorescence was measured quickly after addition of ATP for another 7 mins (1 min intervals). […]

Experiment [2] concerns GBM1 cells. Put plainly: Glioma suppression assay (SRB proliferation). It is filed as cell-based, human. The following applies: in vitro; FIG. 4D. On the procedure: • 1. Without removing the cell culture medium, gently add 50% cold TCA to each well (the final concentration of TCA should be 10%), and incubate the plates at 4° C. for 1 h. For 150 μL medium volume in each well, add 30 μL of 50% TCA. • 2. Wash the plates 4 times with slow-running tap water. Then allow the plates to air-dry at RT. After fixing and drying, the plates can be stored indefinitely at RT. • 3. Add 0.4% SRB solution to each well (e.g. 80 μL/well). Leave at room temperature for 1 h (no shaking) and then quickly rinse the plates 4 times with 1% acetic acid to remove unbound dye. Then allow the plates to dry at RT. Stained and dried plates can be stored indefinitely at RT. • 4. Add 10 mM Tris base solution to each well (e.g. 80 μL/well) and shake the plate for 5 min to solubilize the protein-bound dye. Alternatively, if a shaker is not available, SRB can be solubilized after 30 min in 10 mM Tris base solution. • 5. Measure the OD at […] in a microplate reader. The suboptimal wavelengths should be 490-530 nm.
1000 Grade IV cells (cell line 1 in FIG. 2) were plated in cell culture medium (10% FBS in DMEM) per each well in 96-well plates. On day 1, the cells were treated with 10 μM of the indicated drugs and incubated at 37° C. for 5 days. SRB assay was performed prior to addition of the drugs and after 5 days. The values were normalized against those of the control (untreated cultures). […]

The subject of experiment [3] is grade III astrocytoma cells. Put plainly: Proliferation of primary tumour cells incubated with mitochondrial toxins, grade III. It is filed as cell-based, human. The following applies: rotenone 100 nM, oligomycin 50 nM, UK5099 10 μM; hypoxia and normoxia; FIG. 1B. An excerpt:
(§1) The cell lines employed were low-passage lines, derived from tumour tissue. The cells were obtained from tumour tissue of a highly proliferative glioma (which was a grade IV/glioblastoma multiforme glioma). For comparison, cells were also obtained from a tumour tissue of a comparatively slow-growing glioma (which was a grade III glioma).
(§2) The inventors compared the metabolic and mitochondrial energetic profile of slow-growing glioma/astrocytoma cells (chosen in particular due to their relatively slow growth rate) to that in cells of a highly proliferative glioma primary tumour cells by performing ‘hypoxia’ experiments with primary tumour cells, in which primary tumour cells were deprived of adequate oxygen supply and compared with control cells not so deprived (‘normoxia’). […] The slow growing cells were selected from a grade III glioma, and the highly proliferative cells were chosen from a grade IV glioma i.e. glioblastoma multiforme cells.
(§3) To further investigate this, primary tumour cells were incubated (both under hypoxia and normoxia) with the toxins rotenone (100 nM), oligomycin (50 nM), a combination of rotenone and oligomycin (100 nM and 50 nM, respectively) or UK5099 (10 μM).

Experiment [4] relates to Grade IV (GBM) cells. Put plainly: Proliferation of primary tumour cells incubated with mitochondrial toxins, GBM. It is filed as cell-based, human. The following applies: rotenone 100 nM, oligomycin 50 nM, UK5099 10 μM; hypoxia and normoxia; FIG. 1B.
Source text: as §1, §2, §3

Entries after “also recorded” stand apart in the source; their conditions may differ.

T1 sequence (A1XQS5 62-136): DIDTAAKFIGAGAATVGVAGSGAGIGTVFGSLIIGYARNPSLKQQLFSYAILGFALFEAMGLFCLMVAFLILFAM

Take `N#CC(C#N)=NNc1ccc(OC(F)(F)F)cc1` [FCCP, carbonylcyanide p-trifluoromethoxyphenylhydrazone]: the “ATP response in ACMA assay” value in experiment [1] is “attenuated”.
In the case of `Cn1nnc2c(C(N)=O)ncn2c1=O` [TMZ, temozolomide], in experiment [2], the “effect on proliferation of GBM1 cell line (highest rate of proliferation)” value is listed as “no effect”.
Consider `N#C/C(=C\c1cn(-c2ccccc2)c2ccccc12)C(=O)O` [UK5099], for which the “effect on proliferation of grade III astrocytoma cells” value in experiment [3] was “without a significant effect”. Further, the “effect on proliferation of GBM cells” value in experiment [4] is “decreases the proliferation; also recorded: impeded the proliferation”.
With `CC[C@H]1/C=C/C=C/C[C@@H](C)[C@H](O)[C@@](C)(O)C(=O)[C@@H](C)[C@H](O)[C@@H](C)C(=O)[C@@H](C)[C@H](O)[C@@H](C)/C=C/C(=O)O[C@@H]2[C@H](C)[C@H](CC1)O[C@]1(CC[C@H](C)[C@H](C[C@@H](C)O)O1)[C@H]2C` [oligomycin], the “effect on proliferation of grade III astrocytoma cells” value in experiment [3] is “without a significant effect”. Further, the “ATP response in ACMA assay” value in experiment [1] is recorded as “attenuated”. Also, the “effect on proliferation of GBM cells” value in experiment [4] is “decreases the proliferation; also recorded: impeded the proliferation”.
Consider `C=C(C)[C@H]1Cc2c(ccc3c2O[C@@H]2COc4cc(OC)c(OC)cc4[C@@H]2C3=O)O1` [rotenone], for which the “effect on proliferation of grade III astrocytoma cells” value in experiment [3] is recorded as “without a significant effect”. Further, in experiment [4], the “effect on proliferation of GBM cells” value is on record as “decreases the proliferation; also recorded: impeded the proliferation”.
